From PMC8066102, “Metabolic Profiles of New Unsymmetrical Bisacridine Antitumor Agents in Electrochemical and Enzymatic Noncellular Systems and in Tumor Cells” (Pharmaceuticals, 2021)

How the values were obtained:
HCT-116 cells = assay: Drug metabolism in HCT-116 colon tumor cells; assay type: cell-based, human; conditions: HCT-116 (low UGT expression), 50 μM, medium and cell extract, up to 24 h
Experimental: (§1) To analyze the transformation products of UAs in colon tumor cell lines, HCT-116 or HT-29 cells were plated in 60 mm Petri dishes; after reaching 80% of confluence, cells were treated with 5/25/50 μM of C-2028, C-2045 or C-2053 (prepared as 10 or 2 mM stock solutions in water) for specified time. Half of medium was added to acetonitrile (1:1, v/v), centrifuged (12 min, 13,400 rpm, 4 °C) and the supernatant was analyzed by HPLC (post-culture medium). Cells remaining on the Petri dishes were collected by gentle scraping, sedimented, washed with ice-cold PBS, suspended in ice-cold chloroform and lysed by sonication for 15 min. After 1 h on ice, insoluble material was removed by centrifugation at 13,000 rpm for 20 min at 4 °C. The sediment was discarded and supernatant (chloroform) were evaporated under pressure. Then, sample was suspended in ice-cold 60% methanol and directly analyzed by HPLC (cell extract).

P4503A4 = target: T1, P4503A4 (Homo sapiens, UniProt P08684); assay: Modulation of P4503A4 activity (testosterone β-hydroxylation); assay type: in vitro ADME; conditions: for mechanism of P4503A4 inhibition: testosterone 0.02-0.2 mM, inhibitor 0-0.01 mM, nonlinear regression; for decrease in activity of P4503A4: testosterone β-hydroxylation, all concentrations (0.01, 0.02 and 0.05 mM), 30 min
T1 construct: purchased Cypex, Dundee, Scotland, UK (through Tebu-Bio); host or cells: Escherichia coli (Bactosomes)
T1 sequence (P08684 whole entry): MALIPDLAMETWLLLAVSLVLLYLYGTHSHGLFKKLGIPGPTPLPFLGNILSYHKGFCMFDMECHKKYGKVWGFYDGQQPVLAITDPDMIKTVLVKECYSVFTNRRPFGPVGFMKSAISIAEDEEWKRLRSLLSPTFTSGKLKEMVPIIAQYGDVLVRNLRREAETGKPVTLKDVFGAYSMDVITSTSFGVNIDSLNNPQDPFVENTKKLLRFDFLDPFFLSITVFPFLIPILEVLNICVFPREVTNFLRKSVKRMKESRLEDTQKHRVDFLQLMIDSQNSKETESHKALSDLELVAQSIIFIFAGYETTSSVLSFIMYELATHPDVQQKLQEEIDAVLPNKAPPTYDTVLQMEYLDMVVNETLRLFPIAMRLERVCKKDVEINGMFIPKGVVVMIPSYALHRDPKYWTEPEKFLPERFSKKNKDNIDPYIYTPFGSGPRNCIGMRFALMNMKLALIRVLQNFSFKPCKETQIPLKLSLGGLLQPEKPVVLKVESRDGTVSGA
Experimental: (§2) Isoenzyme activity was studied by the rate measurement of β-hydroxylation of testosterone (specific substrate for P4503A4) and of glucuronidation of specific substrates, namely, SN-38 (UGT1A1), EPI (UGT2B7),) and TFK (UGT2B15). All substrate and drug solutions were prepared as 10 mM stock solutions in DMSO and were diluted in […] (pH 7.4). The mixture containing isoenzymes P4503A4/UGT (0.5 mg/mL), probe substrate (0.1 mM), cofactor 2 mM NADPH/5 mM UDPGA and the increasing concentrations of tested UA (0, 0.01, 0.02 and 0.05 mM) was incubated in the reaction buffer containing (i) for P4503A4 0.1 M HEPES, 88 mM MgCl2 and (ii) for UGT 0.1 M HEPES, 88 mM MgCl2, 25 μg/mL alamethicin at 37 °C for 30 min and were terminated by adding 8.75 µL of 0.1 M HCl. The samples were placed in ice for 10 min and centrifuged (10 min, 13,400 rpm). Supernatant fractions were analyzed by HPLC. For more accurate investigation of P4503A4 inhibition by C-2045 and C-2053 the β-hydroxylation rate was measured at various concentrations of testosterone: 0.02, 0.05, 0.1 and 0.2 mM. The inhibitor (UA) concentrations were 0, 0.001, 0.005 and 0.01 mM, whereas the incubation time 30 min and concentration of P4503A4 (0.5 mg/mL).

HCT-116-UGT1A10 cells = assay: Drug metabolism in HCT-116 cells transfected with UGT1A10; assay type: cell-based, human; conditions: HCT-116 overexpressing UGT1A10, 50 μM, medium and cell extract, 24 and 72 h
Experimental: as §1

[1] = Differential pulse voltammetry on glassy carbon electrode; assay type: physicochemical; conditions: 0.5–20 µM, 0.02 M borate buffer with 0.15 M NaCl, pH 7.4, glassy carbon electrode, vs Ag/AgCl/3 M KCl
Experimental: To minimize the effects of electrode absorption processes on the current signals, differential pulse voltammetry (DPV) was applied in the positive potential range. […] This behavior was not observed in the case of C-2045, where only one anodic signal at a potential of approximately 0.52 V was observed over the entire studied concentration range (0.5–20 µM). The linear dependency, I = f (cUAs), confirmed that the obtained anodic current signals can be used for analytical purposes; however, the signal of C-2028 was linear over a narrower concentration range than in the case of C-2045.
Cyclic voltammetry (CV) and differential pulse voltammetry (DVP) were performed in 0.02 M borate buffer with 0.15 M NaCl, in water pH 7.4. with Autolab, model PGSTAT 12 potentiostat equipped with an ECD amplifier module (RC time settings: 0.0 s for scan rates > 10 mV/s and 0.1 s for scan rates < 10 mV/s). The voltammetric measurements were done in the three-electrode system consisting of the working electrode (glassy carbon electrode, GCE; ϕ = 3 mm; BAS Instruments), the reference electrode (Ag/AgCl/3 M KCl) and a platinum wire as the auxiliary electrode. Before each experiment the surface of working electrode was polished with 1 μm Al2O3 powder on a wet pad. After each polishing, to remove alumina completely from the electrode surface, the surface was rinsed with direct stream of ultrapure water. […]

HT-29 cells = assay: Drug metabolism and medium/cell extract distribution in HT-29 colon tumor cells; assay type: cell-based, human; conditions: HT-29, 5 μM; for drug level in cell extract: 3-48 h; for metabolite formation in cells: post-culture media and cell extracts
Experimental: as §1

UGT2B7 = target: T2, UGT2B7 (Homo sapiens, UniProt P16662); assay: Modulation of UGT2B7 activity (epirubicin glucuronidation); assay type: in vitro ADME; conditions: epirubicin substrate
T2 construct: purchased Corning, NY, USA (through DIAG-MED, Poland); host or cells: baculovirus-insect cells (Supersomes)
T2 sequence (P16662 24-529): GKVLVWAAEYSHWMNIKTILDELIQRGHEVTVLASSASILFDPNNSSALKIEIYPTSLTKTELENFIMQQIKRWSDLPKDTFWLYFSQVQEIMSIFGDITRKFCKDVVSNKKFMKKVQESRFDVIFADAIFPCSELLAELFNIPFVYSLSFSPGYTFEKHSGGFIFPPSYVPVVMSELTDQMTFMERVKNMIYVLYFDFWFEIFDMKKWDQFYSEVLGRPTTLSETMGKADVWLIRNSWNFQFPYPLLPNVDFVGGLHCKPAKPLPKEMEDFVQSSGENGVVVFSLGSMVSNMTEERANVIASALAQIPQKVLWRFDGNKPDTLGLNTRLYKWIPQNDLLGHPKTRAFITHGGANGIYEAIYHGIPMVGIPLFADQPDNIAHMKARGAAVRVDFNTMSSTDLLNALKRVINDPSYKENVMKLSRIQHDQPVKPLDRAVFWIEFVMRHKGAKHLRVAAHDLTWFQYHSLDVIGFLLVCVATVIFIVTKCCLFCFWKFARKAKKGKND
Experimental: as §2

| Structure (SMILES) | metabolite formation in cells (HCT-116 cells) | mechanism of P4503A4 inhibition (P4503A4) | decrease in activity of P4503A4 (P4503A4) | metabolite formation in cells (HCT-116-UGT1A10 cells) | DPV anodic signal potential [1] | drug level in cell extract (HT-29 cells) | metabolite formation in cells (HT-29 cells) | decrease in the activity of UGT2B7 (UGT2B7; 0.01 mM and 0.02 mM compound) [%] | inhibition at 30 min, 0.05 mM (UGT2B7; human, UGT2B7 isoenzyme preparation, pH 7.4, probe epirubicin (EPI), 0.05 mM compound) [%] |
| --- | --- | --- | --- | --- | --- | --- | --- | --- | --- |
| Cc1ccc([N+](=O)[O-])c2c(NCCCN(C)CCCNc3ccc4ncn5c6ccc(O)cc6c(=O)c3c45)c3ccccc3nc12 [C-2045] | No metabolite products were observed | non-competitive | over 90% | metabolized the substrate to the derivative, which was found in the cell medium rather than in the cell extract | approximately 0.52 V |  |  |  |  |
| Cc1ccc([N+](=O)[O-])c2c(NCCCN(C)CCCNc3ccc4ncn5c6ccccc6c(=O)c3c45)c3ccccc3nc12 [C-2053] |  | competitive | above 50% |  |  | extremely high level | did not indicate the presence of metabolites |  |  |
| CN(CCCNc1c2ccccc2nc2cccc([N+](=O)[O-])c12)CCCNc1ccc2ncn3c4ccccc4c(=O)c1c23 [C-2028] |  |  |  |  |  | high up to 24 hours and diminished significantly after 48 hours | did not indicate the presence of metabolites | 60 | 90 |
